US20240101540A1, “TARGETED PROTEIN DEGRADATION OF PARP14 FOR USE IN THERAPY” (Ribon Therapeutics, Inc., priority 2022, published 2024)
Structures can show the parent of a compound that is named as a salt.

Target: T1, HiBiT tagged PARP14 (Homo sapiens, UniProt Q460N5)
T1 construct: engineered to contain a HiBiT tag on both alleles of the PARP14 gene; endogenous in cells; host or cells: Jurkat cells stably transfected with LgBiT (Promega), PARP14 locus edited by CRISPR/Cas9
Experiment: HiBiT assay for the degradation of PARP14 (HiBiT tagged PARP14 in LgBiT expressing Jurkat cells, 2 or 24 hours)
Assay type: cell-based
Conditions: Assay B (Example B): HiBiT tagged PARP14 degradation in LgBiT expressing Jurkat cells, read-out: DC50
Procedure, shortened: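 Jurkat cells stably expressing LgBiT with CRISPR knock-in of C-terminal HiBiT on both PARP14 alleles, 5,000 cells/well, treated with compound dose-response at 37 °C for 2 or 24 h. Live Cell Substrate luminescence normalised to 0.1% DMSO wells; DC50 from 4-parameter fit with floating top, bottom, Hill.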

T1 sequence (Q460N5 whole entry): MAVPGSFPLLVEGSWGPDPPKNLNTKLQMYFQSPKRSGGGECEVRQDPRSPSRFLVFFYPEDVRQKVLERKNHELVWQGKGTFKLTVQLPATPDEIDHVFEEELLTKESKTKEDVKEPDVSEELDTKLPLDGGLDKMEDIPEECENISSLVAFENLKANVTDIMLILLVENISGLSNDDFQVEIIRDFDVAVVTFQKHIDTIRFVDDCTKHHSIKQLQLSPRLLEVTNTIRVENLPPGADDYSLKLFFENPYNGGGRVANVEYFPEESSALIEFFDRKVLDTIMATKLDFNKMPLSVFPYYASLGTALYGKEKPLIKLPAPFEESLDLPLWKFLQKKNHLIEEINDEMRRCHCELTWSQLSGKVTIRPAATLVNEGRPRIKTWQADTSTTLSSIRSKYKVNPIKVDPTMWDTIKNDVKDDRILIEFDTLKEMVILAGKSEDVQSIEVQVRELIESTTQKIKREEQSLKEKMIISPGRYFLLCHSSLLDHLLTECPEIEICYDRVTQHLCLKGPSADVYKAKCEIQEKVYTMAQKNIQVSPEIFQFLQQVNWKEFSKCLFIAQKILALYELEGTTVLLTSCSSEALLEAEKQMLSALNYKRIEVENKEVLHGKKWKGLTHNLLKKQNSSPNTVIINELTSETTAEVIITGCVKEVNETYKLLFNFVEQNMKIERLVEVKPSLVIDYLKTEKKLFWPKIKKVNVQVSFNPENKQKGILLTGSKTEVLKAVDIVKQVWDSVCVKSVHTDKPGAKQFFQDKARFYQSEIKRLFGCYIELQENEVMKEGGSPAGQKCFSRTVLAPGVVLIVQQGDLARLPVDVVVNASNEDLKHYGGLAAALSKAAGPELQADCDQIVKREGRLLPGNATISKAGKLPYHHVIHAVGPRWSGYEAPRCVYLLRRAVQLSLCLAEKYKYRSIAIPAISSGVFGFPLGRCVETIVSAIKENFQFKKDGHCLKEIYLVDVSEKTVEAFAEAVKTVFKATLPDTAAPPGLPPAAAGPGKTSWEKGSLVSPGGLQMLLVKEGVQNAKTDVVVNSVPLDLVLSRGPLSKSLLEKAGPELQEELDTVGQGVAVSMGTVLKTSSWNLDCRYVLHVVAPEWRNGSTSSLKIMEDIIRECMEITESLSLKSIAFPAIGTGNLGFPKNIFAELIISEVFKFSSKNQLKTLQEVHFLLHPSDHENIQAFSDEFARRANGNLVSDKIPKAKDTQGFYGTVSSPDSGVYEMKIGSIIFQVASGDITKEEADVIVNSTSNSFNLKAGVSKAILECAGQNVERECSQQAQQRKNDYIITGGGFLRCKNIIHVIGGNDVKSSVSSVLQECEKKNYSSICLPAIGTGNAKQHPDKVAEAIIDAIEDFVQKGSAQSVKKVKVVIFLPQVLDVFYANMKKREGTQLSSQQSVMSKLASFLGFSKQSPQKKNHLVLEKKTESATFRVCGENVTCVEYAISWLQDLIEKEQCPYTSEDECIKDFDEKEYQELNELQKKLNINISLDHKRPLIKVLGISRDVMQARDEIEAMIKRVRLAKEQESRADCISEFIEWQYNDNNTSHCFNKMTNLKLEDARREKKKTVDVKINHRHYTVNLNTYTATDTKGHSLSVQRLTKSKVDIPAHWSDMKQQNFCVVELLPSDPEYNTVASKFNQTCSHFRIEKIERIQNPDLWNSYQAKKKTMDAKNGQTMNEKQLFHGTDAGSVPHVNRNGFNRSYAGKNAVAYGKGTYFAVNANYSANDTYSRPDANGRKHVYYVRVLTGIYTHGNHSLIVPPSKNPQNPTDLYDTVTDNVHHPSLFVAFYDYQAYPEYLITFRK

Structure (SMILES) | DC50 [µM]
O=C1CCC(Nc2ccc(N3CCC(C(=O)N4CCC(N5CCC(COc6cc(F)c7c(=O)[nH]c(COC8CCOCC8)nc7c6)CC5)CC4)CC3)c(F)c2)C(=O)N1 (stereo not drawn) [Example 172, 3-((3-fluoro-4-(4-(4-(((5-fluoro-4-oxo-2-(((tetrahydro-2H-pyran-4-yl)oxy)methyl)-3,4-dihydroquinazolin-7-yl)oxy)methyl)-[1,4′-bipiperidine]-1′-carbonyl)piperidin-1-yl)phenyl)amino)piperidine-2,6-dione] | < 0.03
O=C1CCC(Nc2ccc(N3CCC(C(=O)N4CCC(N5CCC(COc6cc(F)c7c(=O)[nH]c(CSC8CCOCC8)nc7c6)CC5)CC4)CC3)c(F)c2)C(=O)N1 (stereo not drawn) [Example 173, 3-((3-fluoro-4-(4-(4-(((5-fluoro-4-oxo-2-(((tetrahydro-2H-pyran-4-yl)thio)methyl)-3,4-dihydroquinazolin-7-yl)oxy)methyl)-[1,4′-bipiperidine]-1′-carbonyl)piperidin-1-yl)phenyl)amino)piperidine-2,6-dione formate] | < 0.03
O=C1CCC(Nc2ccc(N3CCN(CC(=O)N4CCC(COc5cc(F)c6c(=O)[nH]c(CSC7CCOCC7)nc6c5)CC4)CC3)c(F)c2)C(=O)N1 (stereo not drawn) [Example 174, 3-((3-fluoro-4-(4-(2-(4-(((5-fluoro-4-oxo-2-(((tetrahydro-2H-pyran-4-yl)thio)methyl)-3,4-dihydroquinazolin-7-yl)oxy)methyl)piperidin-1-yl)-2-oxoethyl)piperazin-1-yl)phenyl)amino)piperidine-2,6-dione] | < 0.03
O=C1CCC(Nc2ccc(N3CCC(C(=O)N4CCC(N5CCC(COc6cc(F)c7c(=O)[nH]c(CCC8CCOCC8)nc7c6)CC5)CC4)CC3)c(F)c2)C(=O)N1 (stereo not drawn) [Example 175, 3-((3-fluoro-4-(4-(4-(((5-fluoro-4-oxo-2-(2-(tetrahydro-2H-pyran-4-yl)ethyl)-3,4-dihydroquinazolin-7-yl)oxy)methyl)-[1,4′-bipiperidine]-1′-carbonyl)piperidin-1-yl)phenyl)amino)piperidine-2,6-dione] | < 0.03
O=C1CCC(Nc2ccc(N3CCC(C(=O)N4CCC(N5CCC(COc6cc(F)c7c(=O)[nH]c(CSC8CCOCC8)nc7c6)CC5)C4)CC3)c(F)c2)C(=O)N1 (stereo not drawn) [Example 176, 3-((3-fluoro-4-(4-(3-(4-(((5-fluoro-4-oxo-2-(((tetrahydro-2H-pyran-4-yl)thio)methyl)-3,4-dihydroquinazolin-7-yl)oxy)methyl)piperidin-1-yl)pyrrolidine-1-carbonyl)piperidin-1-yl)phenyl)amino)piperidine-2,6-dione] | < 0.03
O=C1CCC(Nc2ccc(N3CCC(C(=O)N4CC(N5CCC(COc6cc(F)c7c(=O)[nH]c(COC8CCOCC8)nc7c6)CC5)C4)CC3)c(F)c2)C(=O)N1 (stereo not drawn) [Example 177, 3-((3-fluoro-4-(4-(3-(4-(((5-fluoro-4-oxo-2-(((tetrahydro-2H-pyran-4-yl)oxy)methyl)-3,4-dihydroquinazolin-7-yl)oxy)methyl)piperidin-1-yl)azetidine-1-carbonyl)piperidin-1-yl)phenyl)amino)piperidine-2,6-dione] | < 0.03
O=C1CCC(Nc2ccc(N3CCC(C(=O)N4CC(N5CCC(COc6cc(F)c7c(=O)[nH]c(CC8CC8)nc7c6)CC5)C4)CC3)c(F)c2)C(=O)N1 (stereo not drawn) [Example 178, 3-((4-(4-(3-(4-(((2-(cyclopropylmethyl)-5-fluoro-4-oxo-3,4-dihydroquinazolin-7-yl)oxy)methyl)piperidin-1-yl)azetidine-1-carbonyl)piperidin-1-yl)-3-fluorophenyl)amino)piperidine-2,6-dione] | < 0.03
O=C1CCC(Nc2ccc(N3CCC(N4CC(CC(=O)N5CCC(COc6cc(F)c7c(=O)[nH]c(CSC8CCOCC8)nc7c6)CC5)C4)CC3)c(F)c2)C(=O)N1 (stereo not drawn) [Example 179, 3-((3-fluoro-4-(4-(3-(2-(4-(((5-fluoro-4-oxo-2-(((tetrahydro-2H-pyran-4-yl)thio)methyl)-3,4-dihydroquinazolin-7-yl)oxy)methyl)piperidin-1-yl)-2-oxoethyl)azetidin-1-yl)piperidin-1-yl)phenyl)amino)piperidine-2,6-dione] | < 0.03
O=C1CCN(c2ccc(N3CCC(CN4CCC(COc5cc(F)c6c(=O)[nH]c(COC7CCOCC7)nc6c5)CC4)CC3)c(F)c2)C(=O)N1 [Example 180, 1-(3-fluoro-4-(4-((4-(((5-fluoro-4-oxo-2-(((tetrahydro-2H-pyran-4-yl)oxy)methyl)-3,4-dihydroquinazolin-7-yl)oxy)methyl)piperidin-1-yl)methyl)piperidin-1-yl)phenyl)dihydropyrimidine-2,4(1H,3H)-dione] | < 0.03
Cn1nc(N2CCC(=O)NC2=O)c2ccc(N3CCC(CN4CCC(COc5cc(F)c6c(=O)[nH]c(CSC7CCOCC7)nc6c5)CC4)CC3)cc21 [Example 181, 1-(6-(4-((4-(((5-fluoro-4-oxo-2-(((tetrahydro-2H-pyran-4-yl)thio)methyl)-3,4-dihydroquinazolin-7-yl)oxy)methyl)piperidin-1-yl)methyl)piperidin-1-yl)-1-methyl-1H-indazol-3-yl)dihydropyrimidine-2,4(1H,3H)-dione] | < 0.03
Cn1nc(N2CCC(=O)NC2=O)c2cc(F)c(N3CCC(CN4CCC(COc5cc(F)c6c(=O)[nH]c(CSC7CCOCC7)nc6c5)CC4)CC3)cc21 [Example 182, 1-(5-fluoro-6-(4-((4-(((5-fluoro-4-oxo-2-(((tetrahydro-2H-pyran-4-yl)thio)methyl)-3,4-dihydroquinazolin-7-yl)oxy)methyl)piperidin-1-yl)methyl)piperidin-1-yl)-1-methyl-1H-indazol-3-yl)dihydropyrimidine-2,4(1H,3H)-dione] | < 0.03
Cn1nc(N2CCC(=O)NC2=O)c2cc(F)c(N3CCC(CN4CCC(COc5cc(F)c6c(=O)[nH]c(COC7CCOCC7)nc6c5)CC4)CC3)cc21 [Example 183, 1-(5-fluoro-6-(4-((4-(((5-fluoro-4-oxo-2-(((tetrahydro-2H-pyran-4-yl)oxy)methyl)-3,4-dihydroquinazolin-7-yl)oxy)methyl)piperidin-1-yl)methyl)piperidin-1-yl)-1-methyl-1H-indazol-3-yl)dihydropyrimidine-2,4(1H,3H)-dione] | < 0.03
Cn1nc(N2CCC(=O)NC2=O)c2ccc(N3CCC(COc4cc(F)c5c(=O)[nH]c(COC6CCOCC6)nc5c4)CC3)cc21 [Example 184, 1-(6-(4-(((5-fluoro-4-oxo-2-(((tetrahydro-2H-pyran-4-yl)oxy)methyl)-3,4-dihydroquinazolin-7-yl)oxy)methyl)piperidin-1-yl)-1-methyl-1H-indazol-3-yl)dihydropyrimidine-2,4(1H,3H)-dione] | < 0.03
Cn1nc(N2CCC(=O)NC2=O)c2cc(F)c(N3CC(N4CCC(COc5cc(F)c6c(=O)[nH]c(CSC7CCOCC7)nc6c5)CC4)C3)cc21 [Example 185, 1-(5-fluoro-6-(3-(4-(((5-fluoro-4-oxo-2-(((tetrahydro-2H-pyran-4-yl)thio)methyl)-3,4-dihydroquinazolin-7-yl)oxy)methyl)piperidin-1-yl)azetidin-1-yl)-1-methyl-1H-indazol-3-yl)dihydropyrimidine-2,4(1H,3H)-dione] | < 0.03
Cn1nc(N2CCC(=O)NC2=O)c2ccc(C3CCN(CCOc4cc(F)c5c(=O)[nH]c(CSC6CCOCC6)nc5c4)CC3)cc21 [Example 186, 1-(6-(1-(2-((5-fluoro-4-oxo-2-(((tetrahydro-2H-pyran-4-yl)thio)methyl)-3,4-dihydroquinazolin-7-yl)oxy)ethyl)piperidin-4-yl)-1-methyl-1H-indazol-3-yl)dihydropyrimidine-2,4(1H,3H)-dione] | < 0.03
